Assay results from patent EP4596561A1, “PHOSPHORUS-CONTAINING COMPOUND, PHARMACEUTICAL COMPOSITION AND USE THEREOF” (Suzhou Genhouse Bio Co., Ltd., priority 2022, dated 2024).
Like-named read-outs stand apart in the source and are kept apart here.

Legend:
[1] = system: MSTO-211H (NF2 wide-type); experiment: Inhibition of cell proliferation (CellTiter-Lumi); assay type: cell-based; conditions: Homo sapiens, 72 h + another 72 h treatment
Description: (§1) NCI-H2052 (NF2 mutant), NCI-H226 (NF2 mutant), NCI-H2452 (NF2 wide-type), NCI-H28 (NF2 wide-type), and MSTO-211H (NF2 wide-type) cells were cultured in RPMI 1640 complete media.
(§2) The normally growing cells described above were digested with a trypsin cell-digesting solution, centrifuged, counted, and then plated in a 96-well plate at a density of 1000 cells per well. Administration was performed 24 h after the cell plating. Inhibitors at different concentration gradients were added at 10 µL per well, and three replicate wells were set for each concentration point. The starting concentration was 20 µM and diluted 8 times with a 4-fold gradient. A corresponding negative control group treated with 0.1% DMSO was also set up. After 72 h of drug treatment, the cell culture plate to be tested was taken out of the incubator. The culture medium in the 96-well plate was pipetted, and 190 µL of fresh RPMI 1640 complete medium was added. Another administration was performed, and the cells were cultured for another 72 h. The 96-well plate was taken out and allowed to equilibrate at room temperature for 10 min. The medium in the 96-well plate was pipetted, and 200 µL of CellTiter-Lumi™ luminescent cell viability detection solution (mixed with a medium in a ratio of 1:1) was added. After shaking for two minutes, the mixture was reacted at room temperature for 10 min. Then, 150 µL of liquid was pipetted from the transparent 96-well plate and transferred to a white 96-well plate for chemiluminescence reading. The background value was subtracted from the value for each well to calculate the cell survival rate. Survival rate (%) = […]. Sample is the chemiluminescence of the drug-treated group, and Vehicle is the […] of the DMSO control group. A sigmoidal dose-survival rate curve was plotted using a non-linear regression model in the GraphPad Prism 7.0 software, and the IC50 values or GI50 values were calculated.

[2] = system: YAP-TEAD transcription complex; experiment: YAP-TEAD reporter gene assay (dual luciferase, stably transfected 293T cells); assay type: cell-based; conditions: Homo sapiens, HEK-293T
Description: YAP-TEAD reporter gene The YAP-TEAD reporter gene assay was performed as follows. Firstly, the 8xGTIIC promoter sequence ([…] GTACTGTTGGTAAA) was constructed into a pGL4.20(luc2-Puro) plasmid, and the TK promoter ([…]) unrelated to the hippo pathway was constructed into a pGL4.78(hRlucCP/Hygro) plasmid, thereby constructing stably transfected 293T cells that can stably and continuously express the transcriptional activity of the YAP-TEAD transcription complex. After selection and identification of individual clones, the clones were grown and maintained in a DMEM medium containing 10% fetal bovine serum, penicillin-streptomycin solution, 1 µg/mL puromycin, and 150 µg/mL hygromycin. To perform reporter gene assays with the compounds to be tested, the well-growing cells described above were plated in a 384-well plate at a cell density of 3000 cells per well, with 90 µL per well. The periphery was sealed with an appropriate amount of PBS to prevent evaporation of water from the peripheral wells. Administration was performed on the next day after the cell plating. The test compounds were added at different concentration gradients, and three replicate wells were set for each concentration point. The compound concentration started at 5 µM and was diluted seven times with a 5-fold gradient. A corresponding negative control group treated with DMSO was also set up. After 24 h of drug treatment, the detection reagents were prepared first. The Dual-Lumi™ Firefly luciferase detection reagent and Dual-Lumi™ Renilla luciferase detection buffer were dissolved and brought to room temperature. […]. According to the amount of 100 µL of Dual-Lumi™ Renilla luciferase detection working solution required for the detection of each sample, an appropriate amount of Dual-Lumi™ Renilla luciferase detection working solution was prepared. […]. The cell culture plate was taken out and allowed to equilibrate at room temperature for 10 min (usually no more than 30 min). Then, 100 µL of Dual-Lumi™ Firefly luciferase detection reagent was added to each well of a 96-well plate (25 µL per well for the 384-well plate), and the mixture was mixed well. The mixture was then incubated at room temperature (about 25 °C) for 10 min to stabilize the luminescent signal, and then chemiluminescence was detected using a multimode microplate reader with a chemiluminescence detection function. Subsequently, the detection of Renilla luciferase began. Firstly, 100 µL of Dual-Lumi™ Renilla luciferase detection working solution was added to each well of a […] (25 µL per well for the 384-well plate), and the mixture was mixed well. The mixture was then incubated at room temperature (about 25 °C) for 10 min to stabilize the luminescent signal. Finally, chemiluminescence was detected using a multimode microplate reader with a chemiluminescence detection function. The obtained data were analyzed using GraphPad Prism 7.0 software. A sigmoidal dose-survival rate curve was plotted using a non-linear regression model, and the IC50 values were calculated.

NCI-H28 (NF2 wide-type) = experiment: Inhibition of cell proliferation (CellTiter-Lumi); assay type: cell-based; conditions: Homo sapiens, 72 h + another 72 h treatment
Description: as §1
as §2, with “The medium in the 96-well plate was pipetted, and 200 µL of CellTiter-Lumi™ luminescent cell viability detection solution (mixed with a medium in a ratio of 1:1) was added.” left out

[3] = system: NCI-H2452 (NF2 wide-type); experiment: Inhibition of cell proliferation (CellTiter-Lumi); assay type: cell-based; conditions: Homo sapiens, 72 h + another 72 h treatment
Description: as §1
as §2, with “The medium in the 96-well plate was pipetted, and 200 µL of CellTiter-Lumi™ luminescent cell viability detection solution (mixed with a medium in a ratio of 1:1) was added.” left out

[4] = Stability test in liver microsomes; assay type: in vitro ADME, SD rat; conditions: rat liver microsomes, 0.5 mg/mL, 1.0 µM substrate
Description: (§3) Phase I metabolic stability of the test compounds in liver microsomes of CD-1 mice, Sprague-Dawley rats, and humans was assessed.
(§4) The animal and human liver microsomes used in the test system were purchased from Xenotech, Corning, or other qualified suppliers and stored in a freezer at a temperature below -60 °C prior to use. The information of the animal and human liver microsomes used was as follows:
(§5) The test samples and the reference compounds were separately incubated with animal and human liver microsomes at 37±1 °C for a period of incubation time of up to 60 min. The samples were taken out at the indicated time points, and the reaction was stopped with acetonitrile or another organic solvent containing an internal standard. After centrifugation, the resulting supernatants were assayed by the liquid chromatography-tandem mass spectrometry (LC-MS/MS) method.
(§6) Microsomes of each species were diluted into a 2× working solution with a 100 mM potassium phosphate buffer. […]
(§7) Incubation was performed in a 96-well plate. Eight incubation plates were prepared and designated T0, T5, T15, T30, T45, T60, Blank60, and NCF60, respectively. The first 6 plates corresponded to reaction time points of 0 min, 5 min, 15 min, 30 min, 45 min, and 60 min, respectively. No test sample or reference compound was added to the Blank60 plate, and samples were taken after 60 min of incubation. In the NCF60 plate, incubation was performed for 60 min using the potassium phosphate buffer instead of the NADPH regeneration system solution. Three replicates were made for samples in all conditions.
(§8) The microsomes and the test sample or reference compound were mixed, and then the incubation plates Blank60, T5, T15, T30, T45, and T60 except for T0 and NCF60 were placed in a 37 °C water bath for pre-incubation for about 10 min. In the incubation plate T0, a stop solution was first added, followed by the addition of the NADPH regeneration system working solution, and 98 µL of the potassium phosphate buffer was added to each sample well of the incubation plate NCF60 to initiate the reaction. After the pre-incubation of the incubation plates Blank60, T5, T15, T30, T45, and T60 was completed, 98 µL of the NADPH regeneration system working solution was added to each sample well to initiate the reaction. The reaction temperature was 37±1 °C, the final volume of the reaction was 200 µL, and the reaction system included 0.5 mg/mL microsomes, 1.0 µM substrate, 1 mM NADP, 6 mM ISO, and 1 unit/mL IDH.
(§9) At 5 min, 15 min, 30 min, 45 min, and 60 min, a cold stop solution containing an internal standard was added to the reaction plate to stop the reaction.
(§10) All the reaction plates after the reaction was stopped were shaken well and centrifuged at 3220× g at 4 °C for 20 min. After the supernatant was diluted at a certain ratio, LC-MS/MS analysis was performed.
(§11) Sample analysis was performed by the liquid chromatography-tandem mass spectrometry (LC-MS/MS) method without standard curves and quality control samples. Semi-quantitative determination was performed according to the ratio of the analyte peak area to the internal standard peak area. The retention times of the analyte and internal standard, the chromatogram acquisition, and chromatogram integration were processed using the Analyst software (Sciex, Framingham, Massachusetts, USA).
(§12) According to the well stir model, the hepatic intrinsic clearance and hepatic clearance can be converted through the following formula. CL(liver) = (CLint(liver)×Qh)/(CLint(liver)+Qh) [formula]

[5] = Stability test in liver microsomes; assay type: in vitro ADME, CD-1 mouse; conditions: mouse liver microsomes, 0.5 mg/mL, 1.0 µM substrate
Description: as §3, §4, §5, §6, §7, §8, §9, §10, §11, §12

[6] = Pharmacokinetic test in mice (low dose); assay type: in vivo, Balb/c mice; conditions: mouse, in vivo, mice; for AUC(0-t): read-out: AUClast; for half-life: read-out: T1/2 (converted)
Description: The compounds of the present disclosure were administered to Balb/c mice by single intravenous injection and oral gavage, and the plasma of the mice at each time point was collected. The concentration of the compounds to be tested in BALB/C plasma was detected using the LC-MS/MS analysis method, and pharmacokinetic analysis was performed.
The mixture was vortexed, shaken, and ultrasonicated. The remaining volume of 25% sulfobutylether-β-cyclodextrin (sterilized) was added to prepare the final concentration solution or suspension.
Intravenous injection formulations will be directly administered in animal experiments without filtration. The IV drug preparation vials were disinfected in an infrared sterilization cabinet one day in advance.
Intravenous injection: Administration was performed via the tail vein. After the needle was inserted, the syringe was slowly […].
Gavage: Gavage needle and syringe of an appropriate type were selected. The gavage needle was inserted from the root of the tongue into the esophagus until it reached near the cardia of the stomach, then the drug formulation was injected, and the gavage needle was withdrawn. When disposable plastic gavage needles were used, one needle was used for each group.
At each time point, 60 µL of whole blood was collected from the submandibular vein or tail vein (except for the IV group). The blood sample was added to a pre-cooled anticoagulant blood collection tube containing anticoagulant EDTA-K2 (1 µL, 15% EDTA-K2 solution), placed on wet ice, and centrifuged (3000 g, 4 °C, 10 min) within 1 h. The plasma was immediately collected after centrifugation, transferred to an EP tube, and stored at -90 °C to -60 °C.
Plasma concentration detection: A developed LC-MS/MS method was used to detect the compounds in plasma.
The plasma concentration-time data were analyzed using a non-compartmental model in the Phoenix® WinNonlin® (Version 8.2, Pharsight, Mountain View, CA).

[7] = Stability test in liver microsomes; assay type: in vitro ADME; conditions: Human liver microsomes, 0.5 mg/mL, 1.0 µM substrate
Description: as §3, §4, §5, §6, §7, §8, §9, §10, §11, §12

[8] = 293T reporter cells, 24 h of drug treatment, read-out: IC50

SMILES	IC50 [1] [µM]	IC50 [2, 8] [µM]	IC50 (NCI-H28 (NF2 wide-type)) [µM]	IC50 [3] [µM]	further results
Cn1cnc(-c2cc(P(C)(C)=O)ccc2Nc2ccc(C(F)(F)F)cn2)c1 [Example 13]	> 20	0.344	> 5	> 20	–
Cn1cc2c3cc(P(C)(C)=O)ccc3n(-c3ccc(C(F)(F)F)cc3)c2n1 [Example 16]	–	–	–	–	half-life at 1 µM [4]: > 2.42 h; half-life at 1 µM [5]: > 2.42 h; IC50 ([2]; 24 h): 0.0318 µM; MRT ([6]; IV 2 mg/kg): 3.6 h; AUC(0-t) ([6]; IV 2 mg/kg): 5.44 µM·h; clearance ([6]; IV 2 mg/kg, read-out: Cl (converted)): 13.3 mL/min/kg; half-life ([6]; IV 2 mg/kg): 2.7 h; MRT ([6]; PO 10 mg/kg): 5.3 h; bioavailability ([6]; PO 10 mg/kg vs IV 2 mg/kg, read-out: F%): 206%; AUC(0-t) ([6]; PO 10 mg/kg): 63.5 µM·h; Cmax ([6]; PO 10 mg/kg, read-out: Cmax): 7.17 µM; half-life ([6]; PO 10 mg/kg): 3.1 h; half-life at 1 µM [7]: > 2.42 h
CP(C)(=O)c1cnc(Nc2ccc(C(F)(F)F)cc2)c(-n2cccn2)c1 [Example 18]	> 1.25	–	> 20	> 1.25	–
CP(C)(=O)c1ccc2c(c1)c1nccnc1n2-c1ccc(C(F)(F)F)cc1 [Example 19]	0.628	–	> 5	> 5	–
CP(C)(=O)c1cnc(Nc2ccc(C(F)(F)F)cc2)c(-n2cc(C(F)(F)F)cn2)c1 [Example 20]	> 1.25	0.439	> 20	–	–
